The values below come from publication PMC11969438 (Inorganic Chemistry Frontiers, 2025).

Data set [1] is described as follows: Hydrolytic stability in phosphate buffer, UHPLC. Type of data set: physicochemical. Particulars: 1 mM, 150 mM PB pH 7.4, 20 °C, over 24 h. How it is done: (§1) PB (150 mM, pH 7.4) containing 1 mM platinum compound was incubated at 20 °C, with and without the addition of 10 eq. of AA. The reaction was monitored using a Thermo Scientific Dionex UltiMate 3000 UHPLC system with a Waters Acquity UPLC BEH C18 1.7 μm 3.0 × 50 mm column. Milli-Q water containing 0.1% formic acid and acetonitrile containing 0.1% formic acid were used as eluents. A gradient of 5–95% over 5 min was used with a flow of 0.6 mL min^−1. To evaluate the current state of the reaction, the peak area of the parental complex was used.

Data set [2] is described as follows: Reduction kinetics with 10 eq. L-ascorbic acid in phosphate buffer, UHPLC. Type of data set: physicochemical. Particulars: 10 eq. AA, PB pH 7.4, 20 °C, after 24 h. As for the experimental part: as §1
In data set [3] the test system is THP1-Dual, HCT116, HCT116/OxR and CT-26 cells. Put plainly: MTT-based cell viability assay, 72 h, statements over all investigated cell lines. Also noted: species or system human and murine. How it is done:
Cell models were seeded (2–2.5 × 10^3 cells per well) in 96-well plates. After 24 h of recovery, the compounds were applied at the concentrations indicated in triplicate. Cell viability was determined after 72 h of continuous drug incubation using an MTT-based cell viability assay (EZ4U, Biomedica, Vienna, Austria) according to the manufacturer's recommendations. Absorbance was measured at 450 nm (vs. 620 nm as reference) using a multimode microplate reader (Tecan Spark, Zurich, Switzerland). Half-maximal inhibitory concentrations (IC50 values) were derived via interpolation from dose–response curves, modeled with the four-parameter logistic (4PL) nonlinear regression model in GraphPad Prism (La Jolla, CA, USA) from at least three independent experiments.

The test system of data set [4] is THP1-Dual cells. Put plainly: Western blot analysis of STING downstream pathway, DNA damage and cell death markers. Type of data set: cell-based, human. The conditions noted are these: 24 h. How it is done: The THP1-Dual cell model was seeded at 1 × 10^6 cells per well in six-well plates. After 24 h of recovery, the compounds were applied at the concentrations indicated. After 24 h of drug exposure, whole-cell protein isolation was performed as described previously.[14] Sodium dodecyl sulfate polyacrylamide gel electrophoresis was performed. Proteins were transferred onto polyvinylidene difluoride membranes (Thermo Scientific, Waltham, MA, USA). Antibodies targeting STING (##13 647; 1 : 1000), phospho-STING (#19 781; 1 : 500), TBK1 (#3504; 1 : 500), IRF-3 (#4302; 1 : 500), phospho-p65 (#3033; 1 : 500), ISG15 (#2743; 1 : 1000), caspase-3 (#9665; 1 : 1000), cleaved caspase-3 (#9661; 1 : 1000), PARP (#9532; 1 : 1000), and cleaved PARP (#9541; 1 : 1000) were purchased from Cell Signaling Technology (Danvers, MA, USA). The p65 antibody (#sc-372; 1 : 1000) was purchased from Santa Cruz and the phospho-H2A.X antibody (#05-636-I; 1 : 500) was obtained from Merck (Darmstadt, Germany). The anti-β-actin (#5441; 1 : 2000) antibody was obtained from Sigma-Aldrich. The anti-mouse IgG (#A0168; 1 : 10 000) horseradish peroxidase (HRP)-coupled secondary antibody was purchased from Sigma-Aldrich, and the anti-rabbit IgG (#7074; 1 : 5000) HRP-linked secondary antibody was obtained from Cell Signaling Technology.
A general note: Immunoblotting shows a protein as a band on a membrane.

The subject of data set [5] is THP1-Dual cells. The experiment in a line: Quantitative RT-PCR of target genes downstream of STING. It counts as cell-based, human. The conditions noted are these: 24 h, prodrugs 100 μM, MSA-2 25 μM. How it is done: The THP1-Dual cell model was seeded at 1 × 10^6 cells per well in six-well plates. After 24 h of recovery, the compounds were applied at the concentrations indicated. After 24 h of drug exposure, total RNA was isolated using TRIzol reagent (Thermo Fisher Scientific, MA, USA), as described previously.[12] RNA was reverse transcribed into cDNA using RevertAid Reverse Transcriptase (Thermo Fisher Scientific). Real-time PCR was performed using the GoTaq® RT-qPCR system (Promega) with a CFX96 Touch Real-Time PCR Detection System (Bio-Rad Laboratories). Relative mRNA levels were quantified using the 2^−ddCT method.[54] RPL41 was used as a housekeeping gene. Human-specific primers were purchased from Eurofins Genomics (Ebersberg, Germany) with the following sequences: RPL41: fwd (5′-[…]-3′), rev (5′-[…]-3′); IFNB1: fwd (5′-CTTGGATTCCTACAAAGAAGCAGC-3′), rev (5′-[…]-3′); ISG15: fwd (5′-[…]-3′), rev (5′-[…]-3′); IFIT1: fwd (5′-[…]-3′), rev (5′-[…]-3′); CXCL10: fwd (5′-[…]-3′), rev (5′-[…]-3′); and CCL5: fwd (5′-[…]-3′), rev (5′-[…]-3′).

Data set [6] relates to THP1-Dual cells. Put plainly: Intracellular platinum accumulation in vitro by ICP-MS. Particulars: 3 h exposure; for cellular platinum accumulation: compared to oxaliplatin. Type of data set: cell-based, human. As for the experimental part:
The THP1-Dual cell model was seeded at 1 × 10^6 cells per well in six-well plates. After 24 h of recovery, the compounds were applied at the concentrations indicated in triplicate. After 3 h of drug exposure, the cells were prepared as published previously.[13] […] The lysate was filled up to 8 mL with water. The platinum concentration was determined by ICP-MS analysis. Platinum and rhenium standards were derived from CPI International (Amsterdam, the Netherlands). The total platinum content was determined with an Agilent 7800 quadrupole-based ICP-MS instrument (Agilent Technologies, Tokyo, Japan) equipped with an Agilent SPS 4 autosampler (Agilent Technologies, Tokyo, Japan) and a MicroMist nebulizer at a sample uptake rate of approximately 0.2 mL min^−1. […] Argon was used as a plasma gas (15 L min^−1) and as a carrier gas (∼1.1 L min^−1). The dwell time was set to 0.1 s and the measurements were performed in 12 replicates with 100 sweeps. Rhenium served as an internal standard for platinum.

As for `COCCOCCOCCOCCNC(=O)[O][Pt-2]12([O]C(=O)CCC(=O)c3cc4cc(OC)c(OC)cc4s3)([NH2+][C@@H]3CCCC[C@H]3[NH2+]1)[O]C(=O)C(=O)[O]2` [Ox-MSA-PEG-Ca, (OC-6-34)-[(1R,2R)-1,2-cyclohexanediamino]-oxalato-[4-(5,6-dimethoxybenzo[b]thiophen-2-yl)-4-oxobutylcarboxylato]-[3,6,9,12-tetraoxatridecan-1-amino]platinum(IV)], the “stability in PB” value in data set [1] is “very well comparable to Ox-MSA-PEG-Es”. For the same compound, the “complex remaining intact in presence of AA” value in data set [2] is recorded as “very well comparable to Ox-MSA-PEG-Es”. Also, the “IC50 ratio prodrug vs free oxaliplatin, maximum over cell models” value in data set [3] is on record as not above 40 fold. Besides, in data set [4], the “DNA damage (p-H2A.X upregulation, cleavage of caspase-3 and PARP)” value is recorded as “induced DNA damage”; the “induction of ISG15” value is recorded as “triggered”. In data set [5], the “mRNA induction of immune response genes (IFN-β, ISG15, IFIT1, CXCL10, CCL5)” value is reported as “distinctly raised transcript levels to a comparable extent as free MSA-2”.

Consider `O=C1[O][Pt]2([NH][C@@H]3CCCC[C@H]3[NH]2)[O]C1=O` [oxaliplatin, reference compound], for which the cellular platinum accumulation result in data set [6] is on record as “accumulated dose-dependently”.

As to `COCCOCCOCCOCCC(=O)[O][Pt-2]12([O]C(=O)CCC(=O)c3cc4cc(OC)c(OC)cc4s3)([NH2+][C@@H]3CCCC[C@H]3[NH2+]1)[O]C(=O)C(=O)[O]2` [Ox-MSA-PEG-Es, (OC-6-44)-[(1R,2R)-1,2-cyclohexanediamino]-oxalato-[4-(5,6-dimethoxybenzo[b]thiophen-2-yl)-4-oxobutylcarboxylato]-[2,5,8,11-tetraoxatetradecanoato]platinum(IV)], in data set [1], the “stability in PB” value is “stable”. Also, the “complex remaining intact in presence of AA” value in data set [2] was approximately 80%. In data set [3], the “IC50 ratio prodrug vs free oxaliplatin, maximum over cell models” value is given as not above 40 fold. In data set [6] (10 μM), the “cellular platinum content vs oxaliplatin” value was “significantly higher platinum content”. The “intracellular platinum levels vs oxaliplatin” value in data set [6] (50 μM, without statistical significance) is recorded as “lower intracellular platinum levels”. In addition, in data set [6], the cellular platinum accumulation result is “did not show a comparable amount of platinum hyper-accumulation”. Further, the “DNA damage (p-H2A.X upregulation, cleavage of caspase-3 and PARP)” value in data set [4] is on record as “induced DNA damage”. Moreover, in data set [5], the “mRNA induction of immune response genes (IFN-β, ISG15, IFIT1, CXCL10, CCL5)” value is “low propensity”.
